Assay results published in US20230225990A1, “DIMETHYL SULFONE FOR TREATMENT OF CHRONICALLY HEAT STRESSED POULTRY” (Evonik Operations GmbH, priority 2020, published 2023).

Test system: male broilers subjected to chronic cyclic heat stress
Assay: Parameters in liver of birds sampled at d-23, d-25 and d-39
Assay type: in vivo, broiler chickens (Ross 308)
Description: Sampling of one bird per pen (with weight close to average weight of the pen) on d-23, d-25 and on d-39 (on d-25 and d-39, sampling starts after >3 h of heat stress that day; 108 birds in total) • malondialdehyde, HSP70 (Chicken Heat Shock Protein 70, Hsp-70 ELISA Kit) Cusabio Code CSB-E11196Ch), HSP90 (Chicken Heat Shock Protein 90, HSP-90 ELISA Kit; Cusabio Code CSB-E12873C), GPx, SOD in plasma; GSH/GSSG in erythrocytes; and T3, T4 and nitric oxide in serum • Breast muscle and liver: malondialdehyde, AOX (GPx, SOD), GSH/GSSG
For physiological measurements, time of sampling (representing the number of minutes between the beginning of heat stress and the precise moment of sampling of the bird that day), if appropriate, was included in the model as a covariable if significant as well. Orthogonal contrasts were applied to test for linear and quadratic effects upon incremental levels of DMS supplementation in the diet. Means are given as estimated marginal means (least square means). Means were separated using the Tukey post-hoc test. Differences were considered significant when p<0.05 and as a trend for significance when p<0.1.

## CS(C)(=O)=O [DMS, dimethyl sulfone]
0.1% DMS in diet (T2), d-23
  GSSG/GSH: 0.016
  Glutathione (GSH): 4.69 µmol/g
  Glutathione peroxidase: 17.0 U/g
  Malondialdehyde: 43.9 nmol/g
  Oxidized glutathione (GSSG): 0.077 µmol/g
  Super oxide dismutase: 332 U/g
0.1% DMS in diet (T2), d-25
  GSSG/GSH: 0.017
  Glutathione (GSH): 4.26 µmol/g
  Glutathione peroxidase: 17.8 U/g
  Malondialdehyde: 48.6 nmol/g
  Oxidized glutathione (GSSG): 0.070 µmol/g
  Super oxide dismutase: 292 U/g
0.1% DMS in diet (T2), d-39
  GSSG/GSH: 0.027
  Glutathione (GSH): 3.74 µmol/g
  Glutathione peroxidase: 17.5 U/g
  Malondialdehyde: 46.4 nmol/g
  Oxidized glutathione (GSSG): 0.093 µmol/g
  Super oxide dismutase: 356 U/g
0.2% DMS in diet (T3), d-23
  GSSG/GSH: 0.015
  Glutathione (GSH): 5.04 µmol/g
  Glutathione peroxidase: 16.9 U/g
  Malondialdehyde: 44.6 nmol/g
  Oxidized glutathione (GSSG): 0.076 µmol/g
  Super oxide dismutase: 317 U/g
0.2% DMS in diet (T3), d-25
  GSSG/GSH: 0.017
  Glutathione (GSH): 4.14 µmol/g
  Glutathione peroxidase: 17.9 U/g
  Malondialdehyde: 49.1 nmol/g
  Oxidized glutathione (GSSG): 0.069 µmol/g
  Super oxide dismutase: 289 U/g
0.2% DMS in diet (T3), d-39
  GSSG/GSH: 0.025
  Glutathione (GSH): 3.94 µmol/g
  Glutathione peroxidase: 18.6 U/g
  Malondialdehyde: 48 nmol/g
  Oxidized glutathione (GSSG): 0.097 µmol/g
  Super oxide dismutase: 346 U/g
